Results as given in the NIST ThermoML archive (doi:10.1021/acs.jced.7b00581).

Settings: 100 kPa, Liquid; for speed of sound: Single path-length method; for mass density: Vibrating tube method

CCCO [propan-1-ol]
Settings | mass density [kg/m3] | speed of sound [m/s]
288.15 K | 807.834 | 1242.3
298.15 K | 799.597 | 1205.3
308.15 K | 791.399 | 1170.4
318.15 K | 783.121 | 1137.3
